Experimental data: the OligoGym collection
“And” between values parts separate entries of the source, which are not always exact repeats. Identical values can stand only once. After the bases stand the sugars from the 5' end (letter, count) and the backbone: PS all phosphorothioate, else s phosphorothioate and o phosphodiester by linkage. Methylation of C is not given here. e = 2'-O-(2-methoxyethyl) (MOE); k = constrained ethyl (cEt); d = 2'-deoxy (DNA)

Biological target: APOL1
Settings: ASO

Sequence | target mRNA inhibition (A431, 2 µM) | target mRNA inhibition (A431, 0.25 µM) | target mRNA inhibition (A431, 1 µM) | other results
GTTCTAACTCTTGGGC (sugars k3 d4 k3 e1 d5, PS) | 58% | – | – | –
GTGTTATATTTGATCC (sugars k3 d4 k3 e1 d5, PS) | 94% | 84% | 91% | target mRNA inhibition (A431, 0.0156 µM): 32%; target mRNA inhibition (A431, 0.04 µM): 50%; target mRNA inhibition (A431, 0.0625 µM): 63%
CTTCTGTTAGATACAA (sugars k4 d9 k3, PS) | – | 73% | 90% | target mRNA inhibition (A431, 0.0625 µM): 46%
CTTTATACCAGTGTCT (sugars kkddddkekekddddd, PS) | 86% | – | – | –
GGGTTATGAAATTATT (sugars k2 d4 e3 k2 d5, PS) | 77% | – | – | –
GTGTTATATTTGATCC (sugars kkddddkekekddddd, PS) | 78% | – | – | –
GATGTGTTTAGGCATT (sugars k4 d9 k3, PS) | – | 71% and 83% | 90% and 91% | –
ATTTCTTGATGTGGTG (sugars kddddkekekeddddd, PS) | 81% | – | – | –
TATTCTCATGGTACAG (sugars k3 d4 k3 e1 d5, PS) | 79% | – | – | –
CACTTTACATGCACGA (sugars kkdddddddddkekek, PS) | – | 69% | 89% | target mRNA inhibition (A431, 0.0156 µM): 21%; target mRNA inhibition (A431, 0.0625 µM): 38%
ACATCATTGGGTTATG (sugars kdddddkekekddddd, PS) | 89% | – | – | –
TGAAGATTGGCTCTGG (sugars k3 d4 k3 e1 d5, PS) | 61% | – | – | –
TGGTCACAGTTCTTGG (sugars k4 d9 k3, PS) | – | 90% | 95% | target mRNA inhibition (A431, 0.0625 µM): 80%
TAATGTCTCAAACTCC (sugars k4 d9 k3, PS) | – | 50% | 80% | target mRNA inhibition (A431, 0.0625 µM): 24%
CACATCATTGGGTTAT (sugars kkddddkekekddddd, PS) | 74% | – | – | –
GGGAATTATGGAATTG (sugars k3 d4 k3 e1 d5, PS) | 77% | – | – | –
AAGATTGGCTCTGGCT (sugars kkddddkdkdkddddd, PS) | 65% | – | – | –
ACACATCATTGGGTTA (sugars k2 d4 e3 k2 d5, PS) | 51% | – | – | –
AAGTATTGCCAGCTAA (sugars k2 d4 e3 k2 d5, PS) | 63% | – | – | –
TGTTATATTTGATCCT (sugars kkkddddkekeddddd, PS) | 71% | – | – | –
GAAGATTGGCTCTGGC (sugars kkkddddkekeddddd, PS) | 75% | – | – | –

Sequence | target mRNA inhibition (A431, 2 µM) | target mRNA inhibition (A431, 0.25 µM) | target mRNA inhibition (A431, 1 µM) | other results
GAGTATTGTTTTTGTG (sugars k3 d5 k3 d5, PS) | 93% and 94% | 91% and 88% | 95% and 94% | target mRNA inhibition (A431, 0.0156 µM): 37%; target mRNA inhibition (A431, 0.0625 µM): 74% and 66%
GTTATATTTGATCCTC (sugars k3 d5 k3 d5, PS) | 100% | 93% | 99% | target mRNA inhibition (A431, 0.0625 µM): 86%
GTTCAAAAGCAGCATT (sugars kddddkekekeddddd, PS) | 33% | – | – | –
GGAATTATGGAATTGC (sugars kkkddddkekekdddd, PS) | 66% | – | – | –
GCAGGTTCACATGACA (sugars k4 d9 k3, PS) | – | 58% | 72% | target mRNA inhibition (A431, 0.0625 µM): 39%
GCAAGGTTGTCCAGAG (sugars k4 d9 k3, PS) | – | 61% | 61% | target mRNA inhibition (A431, 0.0625 µM): 43%
AGCTTTAAACTCAGGT (sugars kkddddkekekkdddd, PS) | 16% | – | – | –
GAATTATGGAATTGCA (sugars k2 d4 e4 k2 d4, PS) | 95% | – | – | –
AGTTTTGTAAGTGCAA (sugars kkddddkekekddddd, PS) | 81% | – | – | –
GGAATTATGGAATTGC (sugars k4 d9 k3, PS) | – | 93% | 98% | target mRNA inhibition (A431, 0.04 µM): 55%; target mRNA inhibition (A431, 0.0625 µM): 74%
GTTATATTTGATCCTC (sugars kkkddddkdkdkdddd, PS) | 92% | – | – | –
GAATTATGGAATTGCA (sugars kkddddkekekkdddd, PS) | 61% | – | – | –
GTTCAAAAGCAGCATT (sugars k2 d4 e3 k2 d5, PS) | 86% | – | – | –
GAATTATGGAATTGCA (sugars kkddddekekeddddd, PS) | 95% | – | – | –
CAACACATCATTGGGT (sugars k2 d4 e3 k2 d5, PS) | 80% | – | – | –
GTTATGAAATTATTGG (sugars kkdddddkekeddddd, PS) | 68% | – | – | –
GTTCAAAAGCAGCATT (sugars kkddddkdkdkddddd, PS) | 73% | – | – | –
AGTTTTGTAAGTGCAA (sugars k2 d4 e3 k2 d5, PS) | 94% | 79% | 93% | target mRNA inhibition (A431, 0.0156 µM): 10%; target mRNA inhibition (A431, 0.0625 µM): 49%
TTCTATTAGAGGGCTA (sugars k2 d4 e4 k2 d4, PS) | 76% | – | – | –
TTATATTTGATCCTCA (sugars k2 d4 e3 k2 d5, PS) | 96% | – | – | –
CTTTATACCAGTGTCT (sugars kekddddeekkddddd, PS) | 95% | 69% | 89% | target mRNA inhibition (A431, 0.0156 µM): 22%; target mRNA inhibition (A431, 0.0625 µM): 41%
